Laboratory results from the supplement of paper PMC10307832.

Tests used:
Test in all cases: relative viability (nuclei count vs DMSO), 5 days (fraction); higher = more cells survive
EKVX = test system: EKVX
Summary of the method: (§1)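 Lung cancer cell lines, seeded in 1536-well plates, were treated the following day by pin tool with a single drug or with five library-drug doses (not always all listed) in √10 steps on top of a fixed anchor-drug dose. Cells were fixed and nuclei stained in one step after 5 days, and nuclei were counted. Relative viability is the nuclei count for treated wells divided by that for vehicle wells, reported as medians of duplicate plates.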

NCI-H1703 = test system: NCI-H1703
Summary of the method: as §1

A549 = test system: A549
Summary of the method: as §1

NCI-H1993 = test system: NCI-H1993
Summary of the method: as §1

NCI-H2085 = test system: NCI-H2085
Summary of the method: as §1

Calu-6 = test system: Calu-6
Summary of the method: as §1

IA-LM = test system: IA-LM
Summary of the method: as §1

ABC-1 = test system: ABC-1
Summary of the method: as §1

NCI-H1648 = test system: NCI-H1648
Summary of the method: as §1

EBC-1 = test system: EBC-1
Summary of the method: as §1

NCI-H2126 = test system: NCI-H2126
Summary of the method: as §1

NCI-H1299 = test system: NCI-H1299
Summary of the method: as §1

HCC-44 = test system: HCC-44
Summary of the method: as §1

RERF-LC-KJ = test system: RERF-LC-KJ
Summary of the method: as §1

For CCN(CC)CCCCNc1ncc2cc(-c3cc(OC)cc(OC)c3)c(NC(=O)NC(C)(C)C)nc2n1 + O=C(c1cc(Cc2n[nH]c(=O)c3ccccc23)ccc1F)N1CCN(C(=O)C2CC2)CC1 [Olaparib] (partner 8 µM), the relative viability (EKVX; first compound 0.03162 µM) was 0.873, the relative viability (EKVX; first compound 0.1 µM) was 1.07 and the relative viability (EKVX; first compound 0.3162 µM) was 1.05. For the same compound, the relative viability (EKVX; first compound 1 µM) was 0.868, the relative viability (NCI-H1703; first compound 0.01 µM) was 0.313 and the relative viability (NCI-H1703; first compound 0.03162 µM) was 0.421. The relative viability (NCI-H1703; first compound 0.1 µM) was 0.52, the relative viability (NCI-H1703; first compound 0.3162 µM) was 0.383 and the relative viability (NCI-H1703; first compound 1 µM) was 0.388. It also gave a relative viability (A549; first compound 0.01 µM) of 0.273, a relative viability (A549; first compound 0.03162 µM) of 0.367 and a relative viability (A549; first compound 0.1 µM) of 0.318. The relative viability (A549; first compound 0.3162 µM) was 0.32, the relative viability (A549; first compound 1 µM) was 0.349 and the relative viability (NCI-H1993; first compound 0.01 µM) was 1.01. For the same compound, the relative viability (NCI-H1993; first compound 0.03162 µM) was 1.01, the relative viability (NCI-H1993; first compound 0.1 µM) was 1.14 and the relative viability (NCI-H1993; first compound 0.3162 µM) was 1.26. The relative viability (NCI-H1993; first compound 1 µM) was 0.99, the relative viability (NCI-H2085; first compound 0.01 µM) was 0.818 and the relative viability (NCI-H2085; first compound 0.03162 µM) was 0.81. The relative viability (NCI-H2085; first compound 0.1 µM) was 0.792, the relative viability (NCI-H2085; first compound 0.3162 µM) was 0.743 and the relative viability (NCI-H2085; first compound 1 µM) was 0.752. The relative viability (Calu-6; first compound 0.03162 µM) was 0.583, the relative viability (Calu-6; first compound 0.1 µM) was 0.627 and the relative viability (Calu-6; first compound 0.3162 µM) was 0.694. It also gave a relative viability (Calu-6; first compound 1 µM) of 0.556, a relative viability (IA-LM; first compound 0.01 µM) of 0.821 and a relative viability (IA-LM; first compound 0.03162 µM) of 0.88. For the same compound, the relative viability (IA-LM; first compound 0.1 µM) was 0.946, the relative viability (IA-LM; first compound 0.3162 µM) was 0.762 and the relative viability (IA-LM; first compound 1 µM) was 0.936. It also gave a relative viability (ABC-1; first compound 0.03162 µM) of 0.754, a relative viability (ABC-1; first compound 0.1 µM) of 1.04 and a relative viability (ABC-1; first compound 0.3162 µM) of 0.93. The relative viability (ABC-1; first compound 1 µM) was 1.01, the relative viability (NCI-H1648; first compound 0.01 µM) was 0.991 and the relative viability (NCI-H1648; first compound 0.03162 µM) was 0.767. For the same compound, the relative viability (NCI-H1648; first compound 0.1 µM) was 0.781, the relative viability (NCI-H1648; first compound 0.3162 µM) was 0.703 and the relative viability (NCI-H1648; first compound 1 µM) was 0.648. It also gave a relative viability (EBC-1; first compound 0.01 µM) of 0.738, a relative viability (EBC-1; first compound 0.03162 µM) of 0.684 and a relative viability (EBC-1; first compound 0.1 µM) of 0.779. The relative viability (EBC-1; first compound 0.3162 µM) was 0.824, the relative viability (EBC-1; first compound 1 µM) was 0.705 and the relative viability (NCI-H2126; first compound 0.01 µM) was 1.03. The relative viability (NCI-H2126; first compound 0.03162 µM) was 0.948, the relative viability (NCI-H2126; first compound 0.1 µM) was 0.976 and the relative viability (NCI-H2126; first compound 0.3162 µM) was 0.984. The relative viability (NCI-H2126; first compound 1 µM) was 0.899, the relative viability (NCI-H1299; first compound 0.01 µM) was 1.03 and the relative viability (NCI-H1299; first compound 0.03162 µM) was 0.991. For the same compound, the relative viability (NCI-H1299; first compound 0.1 µM) was 1.01, the relative viability (NCI-H1299; first compound 0.3162 µM) was 1.04 and the relative viability (NCI-H1299; first compound 1 µM) was 0.998. For the same compound, the relative viability (HCC-44; first compound 0.01 µM) was 1.06, the relative viability (HCC-44; first compound 0.03162 µM) was 1.07 and the relative viability (HCC-44; first compound 0.1 µM) was 1.03. The relative viability (HCC-44; first compound 0.3162 µM) was 1.01, the relative viability (HCC-44; first compound 1 µM) was 0.942 and the relative viability (RERF-LC-KJ; first compound 0.01 µM) was 1.01. The relative viability (RERF-LC-KJ; first compound 0.03162 µM) was 0.92, the relative viability (RERF-LC-KJ; first compound 0.1 µM) was 1.12 and the relative viability (RERF-LC-KJ; first compound 0.3162 µM) was 1.05. The relative viability (RERF-LC-KJ; first compound 1 µM) was 0.963.
